Consider one compound from article PMC6021502, “Cannabigerol Action at Cannabinoid CB1 and CB2 Receptors and at CB1–CB2 Heteroreceptor Complexes” (Frontiers in Pharmacology, 2018).

Like-named read-outs stand apart in the source and are kept apart here.

The target of experiment [1] is TRPA1. The following applies: ref De Petrocellis et al., cited from earlier work.
Experiment [2] relates to T1, CB1R and CB2R (CB1–CB2 heteroreceptor complexes).
T1 construct: expressed in transfected cells; host or cells: HEK-293T, transient co-transfection (PEI)
The experiment is described as follows: β-arrestin 2 recruitment (BRET) in HEK-293T cells co-expressing both receptors. It is filed as cell-based, human. The method, then: (§1) HEK-293T cells were grown in DMEM medium (Gibco, Paisley, Scotland, United Kingdom) supplemented with 2 mM L-glutamine, 100 U/mL penicillin/streptomycin, MEM Non-Essential Amino Acids Solution (1/100) and 5% (v/v) heat inactivated Foetal Bovine Serum (FBS) (Invitrogen, Paisley, Scotland, United Kingdom). […] Cells were transiently transfected with the PEI (Polyethylenimine, Sigma, St. Louis, MO, United States) method as previously described ([Medrano et al., 2017]; [Navarro et al., 2018b]) and used for functional assays 48 h later (unless otherwise stated).
Arrestin recruitment was determined as previously described ([Medrano et al., 2017]; [Navarro et al., 2018b]). Briefly, BRET experiments were performed in HEK-293T cells 48 h after transfection with the cDNA corresponding to the CB2R-YFP or CB1R-YFP and 1 μg cDNA corresponding to β-arrestin 2-Rluc. […] After 1 min of adding coelenterazine H, BRET between β-arrestin 2-Rluc and receptor-YFP was determined and quantified. The readings were collected using a Mithras LB 940 (Berthold Technologies, Bad Wildbad, Germany) that allows the integration of the signals detected in the short-wavelength filter at 485 nm and the long-wavelength filter at 530 nm. To quantify protein-RLuc expression luminescence readings were also performed 10 min of adding 5 μM coelenterazine H.

The test system is the same in experiment [3]. The experiment is described as follows: ERK1/2 phosphorylation in HEK-293T cells co-expressing both receptors. Type of experiment: cell-based, human. As to the method: as §1
To determine ERK1/2 phosphorylation, 50,000 HEK-293T cells/well were plated in transparent Deltalab 96-well microplates and kept at the incubator for 24 h. 2 to 4 h before the experiment, the medium was substituted by serum-starved DMEM medium. Then, cells were pre-treated at 25°C for 10 min with vehicle or CBG in serum-starved DMEM medium and stimulated for an additional 7 min with the specific agonists. Cells were then washed twice with cold PBS before addition of lysis buffer (20 min treatment). 10 μL of each supernatant were placed in white ProxiPlate 384-well microplates and ERK 1/2 phosphorylation was determined using AlphaScreen®SureFire® kit (Perkin Elmer) following the instructions of the supplier and using an EnSpire® Multimode Plate Reader (PerkinElmer, Waltham, MA, United States).

Experiment [4] concerns 5HT1A receptor. Set-up: method as in Cascio et al., 2010. The following applies: stimulation by 1 μM 8-OH-DPAT; ref Cascio et al., 2010; cited from earlier work.
The subject of experiment [5] is experimental colitis. The arrangement: method as in Borrelli et al., 2013. The following applies: model of inflammatory bowel disease; ref Borrelli et al., 2013; cited from earlier work.
Experiment [6] concerns TRPV2. Set-up: method as in De Petrocellis et al., 2011. The following applies: ref De Petrocellis et al., 2011; read-out: EC50, agonist of TRPV2; cited from earlier work.
In experiment [7] the target is PPARγ. Set-up: method as in Granja et al., 2012; Nadal et al., 2017. The following applies: ref Granja et al., 2012; Nadal et al., 2017; cited from earlier work.
Experiment [8] has as its target CB2R. The following applies: cited from earlier work.
The test system of experiment [9] is TRPM8 channels. The arrangement: method as in De Petrocellis et al., 2011. The following applies: ref De Petrocellis et al., 2011; read-out: IC50, antagonist of TRPM8 channels; cited from earlier work.
Setting [10] is: 100 nM CBG pretreatment, cells co-expressing CB1R and CB2R.
[11] abbreviates: CBG alone, dose-effect, cells expressing CB1R and CB2R.

Consider `CCCCCc1cc(O)c(C/C=C(\C)CCC=C(C)C)c(O)c1` [CBG, cannabigerol], for which, in experiment [1] (2008), the “EC50 values, transient receptor potential channels of ankyrin type-1” value was “micromolar range”. For the same compound, the EC50 in [1] (2011, read-out: EC50, agonist/desensitizer of TRPA1) is 700 nM; in experiment [6], 1700 nM. Also, in [2] (setting [10]), the “Effect on agonist actions on β-arrestin recruitment” value is “negligible”. In addition, in experiment [2] (setting [11]), the β-arrestin recruitment result was “negative cross-talk was still evident”. For the same compound, the “Effect on agonist actions on ERK1/2 phosphorylation” value in [3] (setting [10]) is listed as “negligible except for the negative modulation of the ACEA effect on ERK1/2 phosphorylation”. Moreover, the “Effect on ERK1/2 phosphorylation” value in experiment [3] (setting [11]) was “negative cross-talk was still evident”. Moreover, the “Effect on [35S]GTPγS binding upon 5HT1A stimulation” value in [4] is given as “able to antagonize”. Also, in [5], the “Effect on experimental colitis” value was “reduce the histological and molecular changes of experimental colitis”. Moreover, the inhibition constant Ki is 11.7 µM in experiment [7]; 300 to 500 nM in [8] (CHO cells expressing the human CB2R, preliminary results, ref Gauson et al., 2007, Pertwee, 2008); 2600 nM in experiment [8] (CHO cells expressing the human receptor, ref Cascio et al., 2010). Further, the IC50 in experiment [9] is 160 nM.

One may read the Ki as a dissociation constant, usually derived from enzyme kinetics or from competition with a known ligand. One may read the IC50 as the concentration needed to halve the response being measured.
